Data from patent US7235649B2, “Isolated GRP94 ligand binding domain polypeptide and nucleic acid encoding same, and screening methods employing same” (Duke University, priority 2000, dated 2007).

Columns and labels:
HSP90 [1] = assay: Conformational analysis by tryptic proteolysis and SDS-PAGE; type: biochemical; settings: bis-ANS treatment
Experimental: Conformational Analysis by Proteolysis. […] Samples were then combined with 0.1% trypsin and digested for 30 minutes at 37° C. An equal volume of SDS-PAGE sample buffer was added and the samples were snap frozen in liquid nitrogen. Immediately prior to gel analysis, samples were thawed and boiled for 5 minutes. […] Gels were fixed and stained with Coomassie Blue.

GRP94 [2] = target: T1, GRP94 (Sus scrofa, UniProt Q29092); assay: Blue native polyacrylamide gel electrophoresis (oligomeric state); type: biochemical, porcine; set-up: GRP94 was purified from porcine pancreas rough microsomes; from tissue; host or cells: porcine pancreas rough microsomes; settings: ten-fold molar excess of bis-ANS
Experimental: Native Blue Electrophoresis. The oligomeric state of GRP94 was assayed by blue native polyacrylamide gel electrophoresis (BN-PAGE) as described by Schagger et al. (1994) Anal Biochem 217:220–230. GRP94 was either heat shocked or exposed to a 10-fold molar excess of bis-ANS for the indicated times. Samples were then dissolved in 15% glycerol and loaded onto 5–18% gradient gels with 0.02% Coomassie Brilliant Blue in the cathode buffer. Gels were run at 4° C., stained with Coomassie Blue, de-stained and dried.
When purified from tissue, GRP94 exists as a homodimer, as described by Wearsch & Nicchitta (1996a) Prot Express Purif 7(1):114–21; Nemoto et al. (1996) J Biochem 120:249–256. Following heat shock however, GRP94 forms higher molecular weight complexes, as described by Wearsch et al. (1998) Biochemistry 37:5709–5719. To further characterize the effects of bis-ANS on GRP94 structure, the oligomerization states of native, heat shocked and bis-ANS treated GRP94 were assayed by the blue native polyacrylamide gel electrophoresis (BN-PAGE) technique described by Schagger et al. (1994). In these experiments, GRP94 was incubated with bis-ANS or briefly heat shocked and subsequently incubated at 37° C. The samples were then analyzed by BN-PAGE. […] However, exposure to heat shock causes a relatively rapid formation of tetramers, hexamers, and octamers (FIG. 4, lanes 2–4).

GRP94 [3] = target: T1, GRP94; assay: Identification of the bis-ANS binding site by photo-crosslinking, trypsin digestion and Edman sequencing; set-up: GRP94 was purified from porcine pancreas rough microsomes; from tissue; host or cells: porcine pancreas rough microsomes; species or system porcine; settings: 50 μM bis-ANS photo-crosslinked 15 minutes on ice
GRP94 [4] = target: T1, GRP94; type: biochemical, porcine; set-up: GRP94 was purified from porcine pancreas rough microsomes; from tissue; host or cells: porcine pancreas rough microsomes; settings: bis-ANS treated GRP94, ten-fold molar excess [125I]-VSV8, 30 min at 37° C.
GRP94 [5] = target: T1, GRP94; assay: Far-UV circular dichroism; type: biochemical, porcine; set-up: GRP94 was purified from porcine pancreas rough microsomes; from tissue; host or cells: porcine pancreas rough microsomes; settings: 1 μM GRP94, 10 μM bis-ANS 2 hours
Experimental: Circular Dichroism Measurements. Far-UV CD spectrometry was performed on an AVIV Associates 62DS™ circular dichroism spectrometer (AVIV Associates of Lakewood, N.J.). Samples were analyzed in a 1 mm path length quartz cuvette at 37° C. GRP94 samples (1 μM) were prepared in standard phosphate buffered saline solution as buffer A produced unacceptable dynode voltages in the relevant region of the spectrum. GRP94 was incubated with 10 μM bis-ANS for 2 hours at 37° C. prior to obtaining spectra. Spectra were recorded from 300 to 195 nm. The α-helical content of GRP94 was calculated from the molar ellipticity at 222 nm. See Myers & Jakoby (1975) J Biol Chem 250:3785–3789.
To gain further insight into the nature of the bis-ANS dependent conformational change, GRP94 was subjected to heat shocked or treated with bis-ANS and far-UV CD spectra obtained (FIG. 5).

GRP94 [6] = target: T1, GRP94; assay: Citrate synthase thermal aggregation assay (GRP94 chaperone activity); type: biochemical, porcine; set-up: GRP94 was purified from porcine pancreas rough microsomes; from tissue; host or cells: porcine pancreas rough microsomes; settings: 1 μM GRP94 preincubated two hours with 10 μM bis-ANS, 0.15 μM citrate synthase, 43° C.
Experimental: Citrate Synthase Aggregation Assays. The effects of GRP94 on the thermal aggregation of citrate synthase were assayed by the methods described by Buchner et al. (1998) Methods Enzymol 290:323–338. Samples containing no protein, or GRP94 (1 μM), were incubated in 40 mM HEPES pH 7.5 for two hours at 37° C. with either 0.2% DMF or 10 μM bis-ANS. The samples were then warmed to 43° C. for five minutes and placed in a spectrofluorometer thermostatted at 43° C. Citrate synthase was then added to 0.15 μM final concentration and the thermal aggregation of the enzyme followed by light scattering. Excitation and emission wavelengths were both 500 nm with 2 nm slit width. The time course of citrate synthase aggregation was followed for 1000 seconds.
To determine if the bis-ANS-dependent conformational changes in GRP94 were of functional significance, the molecular chaperone activities of native, heat shocked and bis-ANS treated GRP94 were evaluated in a thermal aggregation assay, as described by Jakob et al. (1995) J Biol Chem 270:7288–7294 and Buchner et al. (1998) Methods Enzymol 290:323–338. […] Following experimental treatment of the GRP94, reactions were equilibrated at 43° C., citrate synthase then added and aggregation, as represented by light scattering, was measured.

GRP94 [7] = target: T1, GRP94; assay: Conformational analysis by tryptic proteolysis and SDS-PAGE; type: biochemical, porcine; set-up: GRP94 was purified from porcine pancreas rough microsomes; from tissue; host or cells: porcine pancreas rough microsomes; settings: 5 μM GRP94, 50 μM bis-ANS one hour at 37° C., 0.1% trypsin
GRP94 [8] = target: T1, GRP94; assay: Fluorophore binding reactions with native or heat shocked GRP94 (fluorescence emission)
GRP94 [9] = target: T1, GRP94; assay: [32P]ATP binding assay (nitrocellulose filtration); set-up: GRP94 was purified from porcine pancreas rough microsomes; from tissue; host or cells: porcine pancreas rough microsomes; species or system porcine; settings: 50 μM [32P]ATP, 1 hour on ice
Experimental: (§1) ATP Binding Assay. Six μg of GRP94, BiP, and Hsp90 was incubated with 50 μM yZ[^32P] ATP (1000 μCi/μmol) (Amersham Pharmacia Biotech of Piscataway, N.J.) in buffer B on ice for 1 hour. Nitrocellulose filters (BA85) (Schleicher & Schuell of Keene, N.H.) were individually wet in buffer B before use, and bound versus free [^32P]-ATP was separated by vacuum filtration. Filters were washed with 3×2 mL of ice cold buffer B, placed in 5 mL of scintillation fluid, vortexed, and counted.

GRP94 [10] = target: T1, GRP94; assay: [3H]-NECA competitive displacement assay; type: binding, porcine; set-up: GRP94 was purified from porcine pancreas rough microsomes; from tissue; host or cells: porcine pancreas rough microsomes
BiP = assay: [32P]ATP binding assay (nitrocellulose filtration); set-up: species or system porcine; settings: 50 μM [32P]ATP, 1 hour on ice
Experimental: BiP was purified by the following procedure. A lumenal protein fraction obtained from porcine pancreas rough microsomes was cycled overnight through a 1 ml ADP-agarose and a 1 ml ATP-agarose (Sigma Chemical Co. of St. Louis, Mo.) column coupled in series. […] The BiP containing fractions were identified by SDS-PAGE, and dialyzed against 2×4 L of buffer A (110 mM KOAc, 20 mM NaCl, 25 mM K-Hepes, pH 7.2, 2 mM Mg(OAc)2 0.1 mM CaCl2). The protein sample was then applied to a SUPERDEX® 26/60 column (Amersham Pharmacia Biotech of Piscataway, N.J.) equilibrated in buffer A, and the BiP containing fractions, again identified by SDS-PAGE, were pooled and concentrated by centrifugal ultrafiltration (CENTRICON-30®; Amicon of Beverly, Mass.).
as §1

[11] = target: N-terminal nucleotide binding pocket of Hsp90 (Saccharomyces cerevisiae, UniProt P02829); settings: Prodromou et al. (1997); read-out: Kd of ATP for Hsp90; cited from earlier work
GRP94 [12] = target: T1, GRP94; assay: Tryptophan fluorescence (ligand-induced conformational change); settings: 50 μM NECA, 50 μM geldanamycin, 2.5 mM ATP or 2.5 mM ADP, 1 hour at 37° C.
Experimental: Tryptophan Fluorescence. Tryptophan fluorescence measurements were conducted in a FLUOROMAX™ spectrofluorometer (Spex Industries, Inc. of Edison, N.J.) with the slit widths set to 1 nm for both excitation and emission. […] All spectra were corrected by subtraction of buffer or buffer plus ligand samples. […] Samples were then cooled to room temperature, transferred to a quartz cuvette, and the spectra collected.

Hsp90 [13] = assay: [32P]ATP binding assay (nitrocellulose filtration); set-up: species or system rat; settings: 50 μM [32P]ATP, 1 hour on ice
Experimental: Hsp90 was purified from rat liver cytosol as follows. Cytosol was adjusted to 30% ammonium sulfate and stirred for 60 min on ice. The solution was centrifuged at 20,000×g in a Sorvall SS34 rotor for 15 minutes and the supernatant collected and filtered through a 0.22 μm filter. The filtered supernatant was supplemented with protease inhibitors (1 μg/ml pepstatin, 1 μg/ml leupeptin, 20 μg/ml SBTI, and 0.5 mM PMSF) and loaded onto a phenyl-SUPEROSE™ HR10/10 column (Amersham Pharmacia Biotech of Piscataway, N.J.). After washing, the bound proteins were eluted with a gradient of 30–0% saturated ammonium sulfate in 10 mM Tris/HCl, pH 7.5, 1 mM EGTA, 0.5 mM DTT and the Hsp90 containing fractions were identified by SDS-PAGE. The Hsp90 containing fractions were then pooled and dialyzed 2×3 hr against 2 L of low salt buffer (10 mM NaCl, 25 mM Tris, pH 7.8). The dialyzed sample was then filtered through a 0.22 μm filter, and injected onto a MONO-Q™ HR 10/10 column (Amersham Pharmacia Biotech of Piscataway, N.J.) equilibrated in low salt buffer. The column was eluted with a gradient of 10 mM–750 mM NaCl in 25 mM Tris, pH 7.8. The Hsp90-containing fractions were identified by SDS-PAGE and pooled.
ATP Binding Assay. Six μg of GRP94, BiP, and Hsp90 was incubated with 50 μM yZ[^32P] […] Filters were washed with 3×2 mL of ice cold buffer B, placed in 5 mL of scintillation fluid, vortexed, and counted.

T1 sequence (Q29092 22-804): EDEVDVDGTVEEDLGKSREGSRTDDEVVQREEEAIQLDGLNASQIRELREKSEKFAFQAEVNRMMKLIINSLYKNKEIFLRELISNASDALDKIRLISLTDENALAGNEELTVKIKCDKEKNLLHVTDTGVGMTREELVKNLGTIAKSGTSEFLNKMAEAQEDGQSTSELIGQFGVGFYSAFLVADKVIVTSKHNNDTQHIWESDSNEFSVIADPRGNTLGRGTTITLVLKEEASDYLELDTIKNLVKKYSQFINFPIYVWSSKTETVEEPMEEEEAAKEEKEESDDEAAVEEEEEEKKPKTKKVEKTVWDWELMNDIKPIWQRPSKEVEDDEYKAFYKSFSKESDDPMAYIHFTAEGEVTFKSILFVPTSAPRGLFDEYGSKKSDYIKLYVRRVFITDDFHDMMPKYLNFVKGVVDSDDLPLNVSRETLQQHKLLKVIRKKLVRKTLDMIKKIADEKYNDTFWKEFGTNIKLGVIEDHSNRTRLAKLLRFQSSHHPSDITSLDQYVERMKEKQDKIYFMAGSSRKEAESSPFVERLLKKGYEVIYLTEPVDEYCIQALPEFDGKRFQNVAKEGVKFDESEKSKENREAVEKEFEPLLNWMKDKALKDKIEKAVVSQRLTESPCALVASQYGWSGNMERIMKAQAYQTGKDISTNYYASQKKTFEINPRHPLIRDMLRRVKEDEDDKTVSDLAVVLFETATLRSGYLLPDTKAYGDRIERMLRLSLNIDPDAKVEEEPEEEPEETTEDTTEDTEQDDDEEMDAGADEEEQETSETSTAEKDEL
Sequence of N-terminal nucleotide binding pocket of Hsp90 (P02829 whole entry): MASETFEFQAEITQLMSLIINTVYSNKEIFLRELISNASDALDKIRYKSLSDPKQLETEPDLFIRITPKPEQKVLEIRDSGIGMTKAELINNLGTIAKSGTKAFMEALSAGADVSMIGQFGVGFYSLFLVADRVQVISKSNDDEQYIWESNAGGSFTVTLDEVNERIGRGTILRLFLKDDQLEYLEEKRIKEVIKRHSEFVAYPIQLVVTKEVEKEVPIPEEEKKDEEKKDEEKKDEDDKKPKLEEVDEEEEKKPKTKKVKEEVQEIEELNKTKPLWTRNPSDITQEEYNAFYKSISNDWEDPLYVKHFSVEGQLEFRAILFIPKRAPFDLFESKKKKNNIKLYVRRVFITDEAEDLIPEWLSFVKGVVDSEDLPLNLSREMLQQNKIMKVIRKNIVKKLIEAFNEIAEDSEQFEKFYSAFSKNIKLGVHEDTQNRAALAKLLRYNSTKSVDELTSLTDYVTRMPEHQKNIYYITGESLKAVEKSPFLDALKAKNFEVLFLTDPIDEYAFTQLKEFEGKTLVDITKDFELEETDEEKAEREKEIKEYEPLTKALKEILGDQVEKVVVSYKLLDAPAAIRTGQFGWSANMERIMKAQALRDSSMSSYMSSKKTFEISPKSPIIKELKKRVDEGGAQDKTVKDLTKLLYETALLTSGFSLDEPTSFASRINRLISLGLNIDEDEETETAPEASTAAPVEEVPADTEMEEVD

Compound: 4,4′-dianilino-1,1-binaphthyl-5,5-disulfonic acid [bis-ANS]
- trypsin proteolysis pattern of HSP90 (conformation) (HSP90 [1]): Essentially identical proteolysis patterns were observed following either heat shock or bis-ANS treatment of HSP90
- GRP94 quaternary structure (oligomerization) (GRP94 [2]): induces changes in the quaternary structure of GRP94 that mimic those seen upon heat shock
- site of bis-ANS binding to GRP94 (GRP94 [3]): residues 271–281 of the N-terminal domain of GRP94
- stimulation of GRP94 peptide binding activity over native protein (GRP94 [4]): four to five-fold
- GRP94 secondary structure (CD spectra) (GRP94 [5]): does not alter GRP94 secondary structure
- citrate synthase thermal aggregation in presence of compound-treated GRP94 (GRP94 [6]): no thermal aggregation of citrate synthase was detectable
- trypsin proteolysis pattern of GRP94 (conformation) (GRP94 [7]): substantially reduced recovery of the prominent proteolysis products
- fluorophore binding to native GRP94 (GRP94 [8]; 0.5 μM native GRP94, 5 μM probe, 30 min at 37° C.): bi-phasic
- saturability of bis-ANS binding (GRP94 [8]; heat shocked GRP94): binds in a saturable manner to heat shocked GRP94
- near maximal bis-ANS binding, molar excess of GRP94 monomer over bis-ANS (GRP94 [8]; heat shocked GRP94, fixed bis-ANS 50 nM): 20 -fold molar excess
- bis-ANS binding to native GRP94 following extended incubations (GRP94 [8]; native GRP94, extended incubation (20 hours)): a level of fluorophore binding similar to that seen with heat shocked GRP94 was observed
- Kd (GRP94 [8]; read-out: half maximal binding of bis-ANS to heat shocked GRP94, fixed bis-ANS 50 nM, increasing heat shocked GRP94, emission 475 nm): 110 nM

Compound: Nc1ncnc2c1ncn2[C@@H]1O[C@H](COP(=O)(O)OP(=O)(O)OP(=O)(O)O)[C@@H](O)[C@H]1O [ATP]
- ATP binding to GRP94 (GRP94 [9]): no ATP binding was observed
- molar excess of competitor required for 50% inhibition of [3H]-NECA binding (GRP94 [10]; 20 nM [3H]-NECA): ~1000 -fold molar excess
- competition with [3H]-NECA for binding to GRP94 (adenosine ligands) (GRP94 [10]; 20 nM [3H]-NECA, nominal (80 μM) Mg2+): effectively competed
- effect of excess Mg2+ on binding to GRP94 (GRP94 [10]; 10 mM Mg(OAc)2 vs nominal endogenous magnesium): markedly stimulated
- extent of competition of NECA binding to GRP94 (GRP94 [10]; FIGS. 10A–10C): wholly competed
- nucleoside base specificity: binding by [3H]-NECA competitive displacement (GRP94 [10]; competitors all at 50 μM, 20 nM [3H]-NECA): could bind
- relative affinities for GRP94 in presence of Mg2+ (GRP94 [10]; excess Mg2+): nearly identical relative affinities
- efficacy of competing NECA binding, ATP relative to ADP (GRP94 [10]; nominal Mg2+): eight-fold higher efficacy than ADP
- ATP binding to BiP (BiP): displayed the expected ATP binding activity
- Kd [11]: 132 µM
- change of GRP94 tryptophan fluorescence (GRP94 [12]): the tryptophan fluorescence was decreased
- ATP binding to Hsp90 (Hsp90 [13]): no ATP binding was observed
